In PubChem BioAssay AID2060894 (Molecular Pharmacology Branch, DTP, NCI, 2025):
One block for each compound: values may come before it.

Tested on: K12877-001-R-J1-PDC complex spheroid viability
Assay: Anticancer human tumor K12877-001-R-J1-PDC patient-derived lung adenocarcinoma cell line growth inhibition [RAS]
Settings: for IC50: curve of first compound; for viability, T/C: stronger effect = lower value
Method in brief: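 Agents were tested in combination matrices in half-log decrements from a top concentration at or near clinical Cmax (10 microM if undetermined). Targets were multi-cell spheroids of tumour lines plus HUVEC and MSC stromal cells.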
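Note: spheroids exposed to agents for one week before readout.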
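Throughout, for viability, T/C: tumour cells co-cultured with HUVEC and mesenchymal stem cells in spheroids.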

- IC50 (second compound 0.000949 µM): > 1000 nM
- IC50 (second compound 0.003 µM): > 1000 nM
- IC50 (second compound 0.00949 µM): > 1000 nM
- IC50 (second compound 0.03 µM): > 1000 nM
- IC50 (second compound 0.0949 µM): > 1000 nM
- IC50 (second compound 0.3 µM): > 1000 nM
Compound: C=CC(=O)N1CCN(c2nc(OCC3CCCN3C)nc3c(F)c(-c4nc(N)cc(C)c4C(F)(F)F)c(Cl)cc23)C(C)C1 (centres undefined) + CCn1c(-c2cccnc2C(C)OC)c2c3cc(ccc31)N1CCOC(CC(NC(=O)C(C(C)C)N(C)C(=O)C3(F)CCN(C(=O)C#CC(C)(C)N(C)C)CC3)C(=O)N3CCCC(N3)C(=O)OCC(C)(C)C2)C1
- viability, T/C (second compound 0.000949 µM, first compound 0.00316 µM): 82%
- viability, T/C (second compound 0.000949 µM, first compound 0.01 µM): 83%
- viability, T/C (second compound 0.000949 µM, first compound 0.0316 µM): 83.5%
- viability, T/C (second compound 0.000949 µM, first compound 0.1 µM): 74.2%
- viability, T/C (second compound 0.000949 µM, first compound 0.316 µM): 76%
- viability, T/C (second compound 0.000949 µM, first compound 1 µM): 77.8%
- viability, T/C (second compound 0.003 µM, first compound 0.00316 µM): 78%
- viability, T/C (second compound 0.003 µM, first compound 0.01 µM): 61.3%
- viability, T/C (second compound 0.003 µM, first compound 0.0316 µM): 73.6%
- viability, T/C (second compound 0.003 µM, first compound 0.1 µM): 81.1%
- viability, T/C (second compound 0.003 µM, first compound 0.316 µM): 86%
- viability, T/C (second compound 0.003 µM, first compound 1 µM): 71.1%
- viability, T/C (second compound 0.00949 µM, first compound 0.00316 µM): 75.4%
- viability, T/C (second compound 0.00949 µM, first compound 0.01 µM): 83.9%
- viability, T/C (second compound 0.00949 µM, first compound 0.0316 µM): 77.5%
- viability, T/C (second compound 0.00949 µM, first compound 0.1 µM): 85.3%
- viability, T/C (second compound 0.00949 µM, first compound 0.316 µM): 85.5%
- viability, T/C (second compound 0.00949 µM, first compound 1 µM): 78.6%
- viability, T/C (second compound 0.03 µM, first compound 0.00316 µM): 77.4%
- viability, T/C (second compound 0.03 µM, first compound 0.01 µM): 76.1%
- viability, T/C (second compound 0.03 µM, first compound 0.0316 µM): 77.6%
- viability, T/C (second compound 0.03 µM, first compound 0.1 µM): 75.9%
- viability, T/C (second compound 0.03 µM, first compound 0.316 µM): 81.7%
- viability, T/C (second compound 0.03 µM, first compound 1 µM): 73.3%
- viability, T/C (second compound 0.0949 µM, first compound 0.00316 µM): 83.4%
- viability, T/C (second compound 0.0949 µM, first compound 0.01 µM): 70.5%
- viability, T/C (second compound 0.0949 µM, first compound 0.0316 µM): 79.7%
- viability, T/C (second compound 0.0949 µM, first compound 0.1 µM): 76.1%
- viability, T/C (second compound 0.0949 µM, first compound 0.316 µM): 73.8%
- viability, T/C (second compound 0.0949 µM, first compound 1 µM): 72.8%
- viability, T/C (second compound 0.3 µM, first compound 0.00316 µM): 58.1%
- viability, T/C (second compound 0.3 µM, first compound 0.01 µM): 67%
- viability, T/C (second compound 0.3 µM, first compound 0.0316 µM): 66.3%
- viability, T/C (second compound 0.3 µM, first compound 0.1 µM): 68.5%
- viability, T/C (second compound 0.3 µM, first compound 0.316 µM): 70%
- viability, T/C (second compound 0.3 µM, first compound 1 µM): 66.8%

- IC50 (second compound 0.000949 µM): 16.8 nM
- IC50 (second compound 0.003 µM): 15.1 nM
- IC50 (second compound 0.00949 µM): 13.2 nM
- IC50 (second compound 0.03 µM): 15.9 nM
- IC50 (second compound 0.0949 µM): 13.8 nM
- IC50 (second compound 0.3 µM): 11 nM
Compound: CC1(C)CCC(Nc2ncc(C(F)(F)F)c(-c3c[nH]c4c(P(C)(C)=O)c(C#N)ccc34)n2)CN1 (centres undefined) + CCn1c(-c2cccnc2C(C)OC)c2c3cc(ccc31)N1CCOC(CC(NC(=O)C(C(C)C)N(C)C(=O)C3(F)CCN(C(=O)C#CC(C)(C)N(C)C)CC3)C(=O)N3CCCC(N3)C(=O)OCC(C)(C)C2)C1
- viability, T/C (second compound 0.000949 µM, first compound 0.000949 µM): 88.3%
- viability, T/C (second compound 0.000949 µM, first compound 0.003 µM): 79%
- viability, T/C (second compound 0.000949 µM, first compound 0.00949 µM): 63.7%
- viability, T/C (second compound 0.000949 µM, first compound 0.03 µM): 36.4%
- viability, T/C (second compound 0.000949 µM, first compound 0.0949 µM): 24.2%
- viability, T/C (second compound 0.000949 µM, first compound 0.3 µM): 18.5%
- viability, T/C (second compound 0.003 µM, first compound 0.000949 µM): 80.2%
- viability, T/C (second compound 0.003 µM, first compound 0.003 µM): 81%
- viability, T/C (second compound 0.003 µM, first compound 0.00949 µM): 57.8%
- viability, T/C (second compound 0.003 µM, first compound 0.03 µM): 35.9%
- viability, T/C (second compound 0.003 µM, first compound 0.0949 µM): 24.9%
- viability, T/C (second compound 0.003 µM, first compound 0.3 µM): 18%
- viability, T/C (second compound 0.00949 µM, first compound 0.000949 µM): 74.1%
- viability, T/C (second compound 0.00949 µM, first compound 0.003 µM): 71.8%
- viability, T/C (second compound 0.00949 µM, first compound 0.00949 µM): 55.3%
- viability, T/C (second compound 0.00949 µM, first compound 0.03 µM): 35.1%
- viability, T/C (second compound 0.00949 µM, first compound 0.0949 µM): 22.7%
- viability, T/C (second compound 0.00949 µM, first compound 0.3 µM): 17.1%
- viability, T/C (second compound 0.03 µM, first compound 0.000949 µM): 74.7%
- viability, T/C (second compound 0.03 µM, first compound 0.003 µM): 73.7%
- viability, T/C (second compound 0.03 µM, first compound 0.00949 µM): 63.8%
- viability, T/C (second compound 0.03 µM, first compound 0.03 µM): 33%
- viability, T/C (second compound 0.03 µM, first compound 0.0949 µM): 20.9%
- viability, T/C (second compound 0.03 µM, first compound 0.3 µM): 19%
- viability, T/C (second compound 0.0949 µM, first compound 0.000949 µM): 72.8%
- viability, T/C (second compound 0.0949 µM, first compound 0.003 µM): 66.1%
- viability, T/C (second compound 0.0949 µM, first compound 0.00949 µM): 58.4%
- viability, T/C (second compound 0.0949 µM, first compound 0.03 µM): 34.7%
- viability, T/C (second compound 0.0949 µM, first compound 0.0949 µM): 21.8%
- viability, T/C (second compound 0.0949 µM, first compound 0.3 µM): 18%
- viability, T/C (second compound 0.3 µM, first compound 0.000949 µM): 69.1%
- viability, T/C (second compound 0.3 µM, first compound 0.003 µM): 63.7%
- viability, T/C (second compound 0.3 µM, first compound 0.00949 µM): 53.9%
- viability, T/C (second compound 0.3 µM, first compound 0.03 µM): 29.6%
- viability, T/C (second compound 0.3 µM, first compound 0.0949 µM): 19%
- viability, T/C (second compound 0.3 µM, first compound 0.3 µM): 14.8%
